The structures appear in SMILES notation. Where a name gives a salt, the structure may show the parent alone.

One may read the IC50 as the concentration at which inhibition is half-maximal. A high value points to weaker potency in that assay.

The target in the first test is T1, menin and MLL (menin, Flag tagged; biotinylated MLL1 peptide 1-46aa) (Homo sapiens, UniProt O00255).
T1 sequence (O00255 1-610): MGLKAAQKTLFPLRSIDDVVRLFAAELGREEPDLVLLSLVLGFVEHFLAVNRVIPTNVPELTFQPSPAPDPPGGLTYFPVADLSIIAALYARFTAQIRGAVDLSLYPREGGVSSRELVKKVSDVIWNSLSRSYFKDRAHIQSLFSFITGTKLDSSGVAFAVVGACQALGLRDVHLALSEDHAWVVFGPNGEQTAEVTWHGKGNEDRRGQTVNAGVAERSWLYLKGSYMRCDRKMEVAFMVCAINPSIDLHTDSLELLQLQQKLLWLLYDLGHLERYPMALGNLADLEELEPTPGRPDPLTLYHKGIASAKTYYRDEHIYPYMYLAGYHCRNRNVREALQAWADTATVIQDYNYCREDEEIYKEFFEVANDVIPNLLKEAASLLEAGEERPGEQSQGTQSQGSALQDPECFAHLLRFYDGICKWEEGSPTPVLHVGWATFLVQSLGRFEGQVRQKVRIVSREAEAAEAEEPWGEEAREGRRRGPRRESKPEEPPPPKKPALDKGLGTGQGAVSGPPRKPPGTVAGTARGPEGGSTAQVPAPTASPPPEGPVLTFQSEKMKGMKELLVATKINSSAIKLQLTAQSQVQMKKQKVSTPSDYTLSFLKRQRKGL
Description: biochemical.
Conditions: not given
In turn, `COc1nc(N(C)[C@H]2C[C@@H](NCC3CC=C(c4cc(OC)c(OC)nn4)CC3)C[C@H]2O)c2cc(CC(F)(F)F)sc2n1` (mixture of isomers) [Example 125, (1R,2S,4R)-4-({[4-(5,6-dimethoxypyridazin-3-yl)cyclohex-3-en-1-yl]methyl}amino)-2-{[2-methoxy-6-(2,2,2-trifluoroethyl)thieno[2,3-d]pyrimidin-4-yl](methyl)amino}cyclopentan-1-ol hydrochloride] returned an IC50 of 1.5 nM.

In turn, `COc1cc(-c2ccc(CN[C@H]3C[C@@H](O)[C@@H](N(C)c4ncnc5sc(CC(F)(F)F)cc45)C3)cc2)nnc1N1CCC1` [Example 105, (1R,2S,4R)-4-[({4-[6-(azetidin-1-yl)-5-methoxypyridazin-3-yl]phenyl}methyl)amino]-2-{methyl[6-(2,2,2-trifluoroethyl)thieno[2,3-d]pyrimidin-4-yl]amino}cyclopentan-1-ol hydrochloride] gave an IC50 of 8 nM.

Still in this test, the particulars now being: IC50, binding inhibitory activity between menin and MLL, AlphaLISA; 1 nM menin, 10 nM biotinylated MLL1 peptide.
`C=CC(=O)N(C)c1nnc(-c2ccc(CN[C@H]3C[C@@H](O)[C@@H](N(C)c4nc(OC)nc5sc(CC(F)(F)F)cc45)C3)cc2)cc1OC` [Example 113, N-{6-[4-({[(1R,3R,4S)-3-hydroxy-4-{[2-methoxy-6(2,2,2-trifluoroethyl)thieno[2,3-d]pyrimidin-4-yl](methyl)amino}cyclopentyl]amino}methyl)phenyl]-4-methoxypyridazin-3-yl}-N-methylprop-2-enamide hydrochloride] gave an IC50 of 29.2 nM.

`COc1nc(N(C)[C@H]2C[C@@H](NCc3ccc(-c4cnc(OC)c(OC)c4)cc3)C[C@H]2O)c2cc(CC(F)(F)F)sc2n1` [Example 81, (1R,2S,4R)-4-({[4-(5,6-dimethoxypyridin-3-yl)phenyl]methyl}amino)-2-{[2-methoxy-6-(2,2,2-trifluoroethyl)thieno[2,3-d]pyrimidin-4-yl](methyl)amino}cyclopentan-1-ol hydrochloride] returned an IC50 of 6.1 nM.

For the compound `CN(c1ncnc2sc(CC(F)(F)F)cc12)[C@H]1C[C@@H](NCc2ccc(-c3cccc(N(C)S(C)(=O)=O)c3)cc2)C[C@H]1O` [Example 71, N-[4′-({[(1R,3R,4S)-3-hydroxy-4-{methyl[6-(2,2,2-trifluoroethyl)thieno[2,3-d]pyrimidin-4-yl]amino}cyclopentyl]amino}methyl)[1,1′-biphenyl]-3-yl]-N-methylmethanesulfonamide hydrochloride], the IC50 was found to be 0.6 nM. Against the preceding compound, the IC50 is about 10-fold lower. `CNc1nc(N(C)[C@H]2C[C@@H](NCc3ccc(-c4cnn(S(C)(=O)=O)c4)cc3)C[C@H]2O)c2cc(CC(F)(F)F)sc2n1` [Example 62, (1R,2S,4R)-4[({4[1-(methanesulfonyl)-1H-pyrazol-4-yl]phenyl}methyl)amino]-2-{methyl[2-(methylamino)-6-(2,2,2-trifluoroethyl)thieno[2,3-d]pyrimidin-4-yl]amino}cyclopentan-1-ol hydrochloride] came in with an IC50 of 2 nM.

`CN(c1ncnc2sc(CC(F)(F)F)cc12)[C@H]1C[C@@H](NCc2cccc(-c3cccnc3)c2)C[C@H]1O` [Example 124, (1R,2S,4R)-2-{methyl[6-(2,2,2-trifluoroethyl)thieno[2,3-d]pyrimidin-4-yl]amino}-4-({[3-(pyridin-3-yl)phenyl]methyl}amino)cyclopentan-1-ol hydrochloride] came in with an IC50 of 182 nM. Still for that read-out and setting: the figure for `COc1cnc(-c2ccc(CN[C@H]3C[C@@H](O)[C@@H](N(C)c4ncnc5sc(CC(F)(F)F)cc45)C3)cc2)nc1OC` [Example 97, (1R,2S,4R)-4-({[4-(4,5-dimethoxypyrimidin-2-yl)phenyl]methyl}amino)-2-{methyl[6-(2,2,2-trifluoroethyl)thieno[2,3-d]pyrimidin-4-yl]amino}cyclopentan-1-ol hydrochloride] is 3.9 nM; for `COc1cc(-c2ccc(CN[C@H]3C[C@@H](O)[C@@H](N(C)c4ncncc4Oc4ccc(F)cc4-c4ccccc4C(C)C)C3)cc2)nnc1OC` [Example 101, (1R,2S,4R)-4-({[4-(5,6-dimethoxypyridazin-3-yl)phenyl]methyl}amino)-2-[(5-{[5-fluoro-2′-(propan-2-yl)[1,1′-biphenyl]-2-yl]oxy}pyrimidin-4-yl)(methyl)amino]cyclopentan-1-ol hydrochloride] it is 2.7 nM. Compound `COc1nc(N(C)[C@H]2C[C@@H](NCc3cccc(Nc4cccnc4)c3)C[C@H]2O)c2cc(CC(F)(F)F)sc2n1` [Example 120, (1R,2S,4R)-2-{[2-methoxy-6-(2,2,2-trifluoroethyl)thieno[2,3-d]pyrimidin-4-yl](methyl)amino}-4-[({3-[(pyridin-3-yl)amino]phenyl}methyl)amino]cyclopentan-1-ol hydrochloride] showed an IC50 of 5.8 nM. Compound `CN(c1ncnc2sc(CC(F)(F)F)cc12)[C@@H]1CC[C@H](NCc2ccc(-c3cnc4c(c3)OCCO4)cc2)C1` [Example 63, (1R,3S)-N^3-{[4-(2,3-dihydro[l,4]dioxino[2,3-b]pyridin-7-yl)phenyl]methyl}-N^1-methyl-N^1-[6-(2,2,2-trifluoroethyl)thieno[2,3-d]pyrimidin-4-yl]cyclopentane-1,3-diamine hydrochloride] displayed an IC50 of 19.9 nM.

`CN(c1ncnc2sc(CC(F)(F)F)cc12)[C@H]1C[C@@H](NCc2ccc(-c3cncc4c3cnn4C)cc2)C[C@H]1O` [Example 72, (1R,2S,4R)-4-({[4-(1-methyl-1H-pyrazolo[3,4-c]pyridin-4-yl)phenyl]methyl}amino)-2-{methyl[6-(2,2,2-trifluoroethyl)thieno[2,3-d]pyrimidin-4-yl]amino}cyclopentan-1-ol hydrochloride] registered an IC50 of 10.7 nM.

Staying with this test, now noted: cell free IC50 (nM), 1 nM menin, 10 nM biotinylated MLL1 peptide, AlphaLISA.
In the case of `CN(c1ncnc2sc(CC(F)(F)F)cc12)[C@@H]1CC[C@H](NCc2ccc(S(=O)(=O)N3CCCCCC3)cc2)C1` [Example 59, (1R,3S)-N^3-{[4-(azepane-1-sulfonyl)phenyl]methyl)-N^1methyl-N^1-[6-(2,2,2-trifluoroethyl)thieno[2,3-d]pyrimidin-4-yl]cyclopentane-1,3-diamine hydrochloride], the IC50 is 33 nM. In the case of `CNc1nc(N(C)[C@H]2C[C@@H](NCc3ccc(-n4ccnc4)cc3)C[C@H]2O)c2cc(CC(F)(F)F)sc2n1` [Example 61, (1R,2S,4R)-4-({[4-(1H-imidazol-1-yl)phenyl]methyl}amino)-2-{methyl[2-(methylamino)-6-(2,2,2-trifluoroethyl)thieno[2,3-d]pyrimidin-4-yl]amino}cyclopentan-1-ol hydrochloride], the IC50 worked out at 1.9 nM. Still for that read-out and setting: the figure for `COc1cncc(-c2ccc(CN[C@H]3C[C@@H](O)C[C@@H](Nc4ncnc5sc(CC(F)(F)F)cc45)C3)cc2)c1` (single isomer, unassigned) [Example 15A, Hydrochloride] is 21.6 nM; for `FC(F)(F)Cc1cc2c(N[C@@H]3CCC[C@H](NCc4ccc(-c5ccncc5)cc4)C3)ncnc2s1` [Example 40, (1S,3R)-N^1-{[4-(pyridin-4-yl)phenyl]methyl}-N^3-[6-(2,2,2-trifluoroethyl)thieno[2,3-d]pyrimidin-4-yl]cyclohexane-1,3-diamine hydrochloride] it is 265 nM.

Compound `OCCN(c1ncnc2sc(CC(F)(F)F)cc12)[C@@H]1CC[C@H](NCc2ccc(-c3cccnc3)cc2)C1` [Example 42, 2-{[(1R,3S)-3-({[4-(pyridin-3-yl)phenyl]methyl}amino)cyclopentyl][6-(2,2,2-trifluoroethyl)thieno[2,3-d]pyrimidin-4-yl[amino}ethan-1-ol hydrochloride] yielded an IC50 of 105 nM.

The compound `O=C1CCC(c2ccc(CN[C@H]3CCC[C@@H](Nc4ncnc5sc(CC(F)(F)F)cc45)C3)cc2)N1` (mixture of isomers) [Example 39, 5-[4-({[(1S,3R)-3-{[6-(2,2,2-trifluoroethyl)thieno[2,3-d]pyrimidin-4-yl[amino}cyclohexyl]amino}methyl)phenyl]pyrrolidin-2-one hydrochloride (diastereomer mixture)] yielded an IC50 of 2070 nM. Still for that read-out and setting: the figure for `CN(c1ncnc2sc(CC(F)(F)F)cc12)[C@@H]1CC[C@H](NCc2ccc(Nc3cnn(C)c3)cc2)C1` [Example 12, (1R,3S)—N^1-methyl-N^3-({4-[(1-methyl-1H-pyrazol-4-yl)amino]phenyl}methyl)-N^1-[6-(2,2,2-trifluoroethyl)thieno[2,3-d]pyrimidin-4-yl]cyclopentane-1,3-diamine] is 33.8 nM. The compound `CN(c1ncnc2sc(CC(F)(F)F)cc12)[C@@H]1CC[C@H](NCc2cnn(-c3ccccc3)c2)C1` [Example 32, (1R,3S)-N^1-methyl-N^3-[(1-phenyl-1H-pyrazol-4-yl)methyl]-N^1-[6-(2,2,2-trifluoroethyl)thieno[2,3-d]pyrimidin-4-yl]cyclopentane-1,3-diamine hydrochloride] came in with an IC50 of 94.9 nM. `CN(c1ncnc2sc(CC(F)(F)F)cc12)[C@@H]1CC[C@H](NCc2ccc(S(=O)(=O)N3CCCC(O)C3)cc2)C1` (mixture of isomers) [Example 57, l-[4-({[(1S,3R)-3-{methyl[6-(2,2,2trifluoroethyl)thieno[2,3-d]pyrimidin-4-yl]amino}cyclopentyl]amino}methyl)benzene-1-sulfonyl]piperidin-3-ol hydrochloride (diastereomer mixture)]: the IC50 came to 61.2 nM.

The record behind these values is patent US11236106B2, “Cycloalkane-1,3-diamine derivative” (Daiichi Sankyo Company, Limited, priority 2018, dated 2022).
